This passage reports IC50 results from patent US20240327429A1, “[1,3]Thiazolo[4,5-d]-pyrimidon-7-ones as inhibitors of NOX4” (Boehringer Ingelheim International GmbH, priority 2023, published 2024).

The target of one test is T1, human NOX1 (hNOX1) (Homo sapiens, UniProt Q9Y5S8).
T1 construct: pLV-CMV-hNOX1-puro (NM_007052.5); host or cells: HEK293 (CLS GmbH), lentiviral transduction
T1 sequence (Q9Y5S8 1-564): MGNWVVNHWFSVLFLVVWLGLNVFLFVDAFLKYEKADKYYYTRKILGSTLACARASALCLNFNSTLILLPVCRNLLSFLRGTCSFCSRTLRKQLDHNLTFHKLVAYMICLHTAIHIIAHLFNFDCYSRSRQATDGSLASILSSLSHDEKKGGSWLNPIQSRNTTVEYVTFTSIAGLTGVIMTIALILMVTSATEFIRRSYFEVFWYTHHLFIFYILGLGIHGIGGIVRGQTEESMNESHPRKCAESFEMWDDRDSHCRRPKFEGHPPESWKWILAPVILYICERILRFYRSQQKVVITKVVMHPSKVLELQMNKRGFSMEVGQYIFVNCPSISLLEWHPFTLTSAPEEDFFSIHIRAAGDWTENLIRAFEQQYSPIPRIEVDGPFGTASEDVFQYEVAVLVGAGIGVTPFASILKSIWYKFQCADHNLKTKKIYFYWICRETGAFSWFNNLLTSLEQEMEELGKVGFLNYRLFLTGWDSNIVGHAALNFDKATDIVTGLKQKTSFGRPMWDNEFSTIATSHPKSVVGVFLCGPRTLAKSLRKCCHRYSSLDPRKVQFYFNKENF
T1 sequence (P13498 2-195 partner limits assumed): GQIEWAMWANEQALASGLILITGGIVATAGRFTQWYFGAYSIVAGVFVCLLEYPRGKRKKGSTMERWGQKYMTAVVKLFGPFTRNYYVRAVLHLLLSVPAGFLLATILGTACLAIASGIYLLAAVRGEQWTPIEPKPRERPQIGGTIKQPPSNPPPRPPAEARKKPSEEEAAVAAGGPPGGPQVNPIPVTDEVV
As to the kind of experiment: NOX1 inhibition assay (L-012), HEK293 cells stably overexpressing human NOX1. The class given is cell-based. The following applies: HEK293-hNOX1, PMA stimulated. The procedure, abridged:
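Lentivirally transduced HEK293 stably expressing human NOX1 with NOXO1, NOXA1 and p22phox under antibiotic selection. ROS production read by L-012 chemiluminescence: probe added at 400 μM, cells incubated a further 3 h before luminescence measurement.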

For a further test, the target named is T2, human NOX5 (hNOX5) (Homo sapiens, UniProt Q96PH1).
T2 construct: expressed in transfected cells; host or cells: HEK293
T2 sequence (Q96PH1 1-765): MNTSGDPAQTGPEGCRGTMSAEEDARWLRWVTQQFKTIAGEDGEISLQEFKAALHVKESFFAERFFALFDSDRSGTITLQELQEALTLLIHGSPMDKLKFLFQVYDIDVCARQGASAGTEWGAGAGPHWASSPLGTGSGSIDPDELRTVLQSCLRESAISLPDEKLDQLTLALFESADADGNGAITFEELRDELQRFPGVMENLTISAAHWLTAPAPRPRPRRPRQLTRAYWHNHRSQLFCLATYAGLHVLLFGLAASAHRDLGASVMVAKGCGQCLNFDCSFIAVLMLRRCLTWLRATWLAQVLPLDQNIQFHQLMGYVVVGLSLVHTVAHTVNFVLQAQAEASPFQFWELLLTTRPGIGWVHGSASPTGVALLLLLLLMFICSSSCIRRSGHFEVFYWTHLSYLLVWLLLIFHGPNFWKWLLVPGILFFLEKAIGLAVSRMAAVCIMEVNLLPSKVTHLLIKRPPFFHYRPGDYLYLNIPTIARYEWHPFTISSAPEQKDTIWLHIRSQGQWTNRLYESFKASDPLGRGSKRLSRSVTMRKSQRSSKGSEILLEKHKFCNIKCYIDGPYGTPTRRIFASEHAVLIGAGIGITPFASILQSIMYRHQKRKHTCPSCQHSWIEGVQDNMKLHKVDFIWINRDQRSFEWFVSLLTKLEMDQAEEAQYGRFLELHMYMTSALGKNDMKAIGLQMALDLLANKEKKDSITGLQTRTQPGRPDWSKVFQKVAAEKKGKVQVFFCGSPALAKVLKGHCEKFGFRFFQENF
The experiment in a line: NOX5 inhibition assay (L-012), HEK293 cells stably overexpressing human NOX5. Conditions: HEK293-hNOX5, PMA stimulated. The class given is cell-based. The method, then:
The synthetic gene hNOX5 (Accession: Q96PH1) is cloned into pcDNA3.1_Zeo. […] The final construct is verified by sequencing.
Evaluation of the NOX4 inhibitors on NOX5 activity is assessed in HEK293 cells stably overexpressing human NOX5 (hNOX5).
Cells are seeded in 384 well plates over-night. […] Cells are then stimulated with PMA at 0.1 μM to induce NOX5-dependent ROS production. […] Luminescence is measured with an PHERAstar multimode reader.

SMILES strings stand for the structures.

For orientation: IC50 means the concentration that gives 50% inhibition. Read a low IC50 as greater potency.

On to `O=c1c2scnc2nc(SCc2c(F)cc(F)cc2F)n1-c1cnc(O)c(F)c1` [Example 31, 6-(5-Fluoro-6-hydroxypyridin-3-yl)-5-((2,4,6-trifluorobenzyl)thio)thiazolo[4,5-d]-pyrimidin-7(6H)-one], for which the 50% inhibitory concentration (IC50) on human NOX1 (hNOX1) was 22.9 µM; on human NOX5 (hNOX5), over 100 µM.

Regarding `O=c1c2scnc2nc(SCc2ccc(Cl)cc2F)n1-c1ccc(O)nn1` [Example 61, 5-((4-Chloro-2-fluorobenzyl)thio)-6-(6-hydroxypyridazin-3-yl)thiazolo[4,5-d]pyrimidin-7(6H)-one], the IC50 at human NOX1 (hNOX1) and at human NOX5 (hNOX5) was over 100 µM in each case.

Take `O=c1c2scnc2nc(SCc2c(F)ccc(F)c2F)n1-c1cnc(O)c(F)c1` [Example 45]: the half-maximal inhibitory concentration (IC50) against human NOX1 (hNOX1) is 30.9 µM; against human NOX5 (hNOX5) it was 79 µM.

As for `O=c1c2scnc2nc(SCc2c(F)cc(F)cc2F)n1-c1cnc(O)cc1F` [Example 49, 6-(4-Fluoro-6-hydroxypyridin-3-yl)-5-((2,4,6-trifluorobenzyl)thio)thiazolo[4,5-d]pyrimidin-7(6H)-one], the 50% inhibitory concentration (IC50) on human NOX1 (hNOX1) and against human NOX5 (hNOX5) was over 100 µM in each case.
